Measured values as given in patent US12678424B2, “Method for preventing and/or treating systemic inflammation” (THE BOARD OF TRUSTEES OF THE LELAND STANFORD JUNIOR …, priority 2015, dated 2026).

Experiments:
Format in all cases: in vivo, mice (C57BL6)
microglia [1] = experiment: Flow cytometry of brain microglia for Slc2al expression and 2-NBDG glucose uptake in older mice; conditions: 25 mg/kg oral 3 times a week for 15 weeks from 37 weeks of age, vs vehicle-treated older mice, p<0.05
Method: All animal studies were conducted under protocols approved by APLAC from Stanford University. Older and young animals on C57BL6 background were purchased from Taconic. Older animals are defined as those above 36 weeks of age, when physiological aging process accelerates in mice, while young counterparts are 20 weeks of age. Data are presented as mean±SEM. Two-tailed Student's t-test and two-way ANOVA were used for statistical analyses. A p value of <0.05 is considered to be statistically significant. Older animals were orally treated 3 times a week for 15 weeks with 0.5% methylcellulose (vehicle) or ZLN005 (Sigma) at 25 mg/kg in vehicle, starting at 37 weeks of age. Treated older animals (n=6), non-treated older animals (n=6), and young animals (20 weeks old, n=6) were sacrificed after drug treatment and their brain tissues collected. PBS-perfused brain tissues of sacrificed animals were digested with Collagenase I and processed for flow cytometry (Ginhoux et al Science, 330:841-5, 2010). Brain microglia were phenotyped with 2-NBDG (2-(N-(7-nitrobenz-2-oxa-1,3-diazol-4-yl)amino)-2-deoxyglucose, Invitrogen) and anti-Slc2al antibody (RnD) for flow cytometric acquisition (LSRII, BD) and analysis (FlowJo). The results are summarized in FIG. 1: Y-axis represents % of microglia that either express glucose transporter Slc2al or have taken up glucose fluorescent analog 2-NBDG. […]

[2] = Marble burying assay in older mice; conditions: older mice at 52 weeks of age, 25 mg/kg oral 3 times a week for 15 weeks, 12 marbles, 30 minutes, vs vehicle-treated older mice, p<0.05
Method: All animal studies were conducted under protocols approved by APLAC from Stanford University. Older and young animals on C57BL6 background were purchased from Taconic. Older animals are defined as those above 36 weeks of age, when physiological aging process accelerates in mice, while young counterparts are 20 weeks of age. Data are presented as mean±SEM. Two-tailed Student's t-test and two-way ANOVA were used for statistical analyses. A p value of <0.05 is considered to be statistically significant.
Animals were orally treated 3 times a week for 15 weeks with 0.5% methylcellulose (vehicle) or ZLN005 (Sigma) at 25 mg/kg in vehicle, starting at 37 weeks of age. At 52 weeks of age, the older animals were subjected to a marble burying assay, a behavioral test of anxiety (Dekeyne A. Therapie. 60:477-84.2005). Each animal was given 12 marbles on top of bedding in individual cage and allowed to run free in the cage for 30 minutes. After this period of time, each buried marble was individually assigned a number based on its degree of being buried (1=90-100% hidden, 0.75=60-90% hidden, 0.5=30-60% hidden, 0=below 30% hidden), and then the sum of the numbers of 12 marbles buried by each mouse is calculated as the marble burying score of the mouse. […] Unpaired t-test was used for statistical analysis.

TNF-α = experiment: Serum TNF-α by ELISA in older mice (systemic inflammation); conditions: 25 mg/kg oral 3 times a week for 15 weeks, vs vehicle-treated older mice, p<0.05
Method: (§1) All animal studies were conducted under protocols approved by APLAC from Stanford University. Older and young animals on C57BL6 background were purchased from Taconic. Older animals are defined as those above 36 weeks of age, when physiological aging process accelerates in mice, while young counterparts are 20 weeks of age. Data are presented as mean±SEM. Two-tailed Student's t-test and two-way ANOVA were used for statistical analyses. A p value of <0.05 is considered to be statistically significant. Older animals were orally treated 3 times a week for 15 weeks with 0.5% methylcellulose (vehicle) or ZLN005 (Sigma) at 25 mg/kg in vehicle, starting at 37 weeks of age. Treated older animals (n=6), non-treated older animals or aged animals (n=6), and young animals (20 weeks old, n=6) were sacrificed after drug treatment and their brain tissues were collected. PBS-perfused brain tissues of sacrificed animals were digested with Collagenase I and processed for flow cytometry (Ginhoux et al Science. 330:841-5.2010). Brain microglia were phenotyped with fluorochrome-labeled antibodies to CCL2 and TNF-α (Biolegend) for flow cytometric acquisition (LSRII. BD) and analysis (FlowJo). TNF-α levels in serum of young mice, vehicle-treated older mice, and ZLN-treated older mice (from Example 2) were measured by ELISA to determine TNF-α levels which indicated systemic inflammation. […]

microglia [3] = experiment: Flow cytometry of brain microglia for CCL2 and TNF-α production in older mice; conditions: 25 mg/kg oral 3 times a week for 15 weeks from 37 weeks of age, vs vehicle-treated older mice
Method: as §1, with “The results are summarized” for “TNF-α levels”, “FIG. 2: Y-axis represents %” for “serum”, “microglia that express CCL2 or TNF-α. ANOVA was used for statistical analysis.” for “young mice, vehicle-treated older mice, and ZLN-treated older mice (from Example 2) were measured by ELISA to determine TNF-α levels which indicated systemic inflammation.”

## CC(C)(C)c1ccc(-c2nc3ccccc3[nH]2)cc1 [ZLN005, 2-(4-tert-Butylphenyl)-1H-benzimidazole]
Microglia [1]
  % of microglia that express glucose transporter Slc2al: decreased
  % of microglia that have taken up glucose fluorescent analog 2-NBDG (glucose uptake): decreased
[2]
  marble burying score: reduced the anxiety phenotype
TNF-α
  concentration of TNF-α in serum: decreased
Microglia [3]; p<0.01
  % of microglia that express CCL2: decreased
Microglia [3]; p<0.05
  % of microglia that express TNF-α: decreased
